Results reported in US20220367023A1, “Method for Predicting a Suitable Therapy” (National University of Singapore, priority 2019, published 2022).
Like-named read-outs stand apart in the source and are kept apart here.

Tested on: primary HSTCL cells from a patient
Assay: Ex vivo QPOP drug combination sensitivity, CellTiter-Glo cell viability (11 drugs at 3 doses, OACD)
Assay type: cell-based, human
[1] = Homo sapiens, concentration used in the ex vivo QPOP experiment, read-out: IC15
[2] = Homo sapiens, concentration used in the ex vivo QPOP experiment, read-out: IC30
[3] = output cell viability, 11 drugs at 3 doses
[4] = concentration used in the ex vivo QPOP experiment

Protocol: Tumor cells from an oncology patient sample are treated with a series of test drug combinations defined by Resolution IV Orthogonal Array Composite Design. This array of tests is used to derive coefficients for single drug and drug-drug interactions for all the drugs within the drug search set. These coefficients are used to calculate a predicted output of potential drug combinations (up to 4 drugs) from the drug search set. Patient-specific drug combinations are prioritized based on predicted output of single drug, 2-drug, 3-drug or 4-drug combinations.
In the current embodiment, primary patient sample that contains tumor cells, either from a blood sample or solid tumor biopsy, is collected. Tumor cells are isolated and seeded 2000 cells/well in Nunc™ 384-Well Clear Polystyrene Plates. In the examples used here, cell viability was performed using the CellTiter-Glo® Luminescent Cell Viability Assay following the manufacturer's instructions (Promega, Madison, Wis., USA).
Datasets for analysis by QPOP are built by ex vivo treatment of primary patient tumor cells with a series of drug combinations determined by orthogonal array composite design (OACD) to use the least number of combinations sufficient for factor screening and in-depth analyses, in concentrations that are at or below clinically approved doses (max Pk conc.), Table 1. […] In these examples here, the viability of cells exposed to the various drug combinations are the phenotypic output which is analyzed by the QPOP assay. The correlation of treatment combination (input) and viability (output) was fitted into a second-order quadratic equation. The coefficients of the second-order equation represent the correlation between the input, drug dose of the drug combination, and the output cell viability, allowing for optimizing drug combination. In the analysis, each drug combination was represented as a vector and coded dosages were used in MATLAB. The second-order quadratic equation is as follows:
where y represents the desired output, xn is the nth drug dosage, β0 is the intercept term, βn is the single-drug coefficient of the nth drug, βmn is the interaction coefficient between the mth and nth drugs, and βnn is the quadratic coefficient for the nth drug. […] The coefficients were calibrated using the data points in dose response assay of single drugs and drug combination (Table 2). To ensure the robustness and integrity of the assay, Z′ score is calculated after every QPOP analysis.

CC(C)C[C@H](NC(=O)[C@H](Cc1ccccc1)NC(=O)c1cnccn1)B(O)O [Bortezomib]
IC15 [1]: 6 nM
IC30 [2]: 12 nM
Coefficient estimates of the second-order quadratic fit [3]: 5456

N.N.[Cl][Pt][Cl] [Cisplatin]
IC15 (concentration used in the ex vivo QPOP experiment, read-out: IC15): 1500 nM
IC30 (concentration used in the ex vivo QPOP experiment, read-out: IC30): 3000 nM
Coefficient estimates of the second-order quadratic fit [3]: −0.06756
Estimate, single-drug coefficient of the second-order quadratic fit [3]: 0.06189

O=P1(N(CCCl)CCCl)NCCCO1 (centres unmarked) [Cyclophosphamide]
IC15 (Homo sapiens): 30000 nM
IC30 (Homo sapiens): 60000 nM

Nc1ccn([C@@H]2O[C@H](CO)[C@@H](O)[C@@H]2O)c(=O)n1 [Cytarabine]
IC15 (Homo sapiens): 233 nM
IC30 (Homo sapiens): 466 nM

C[C@@H]1C[C@H]2[C@@H]3CCC4=CC(=O)C=C[C@]4(C)[C@@]3(F)[C@@H](O)C[C@]2(C)[C@@]1(O)C(=O)CO [Dexamethasone]
IC15 (Homo sapiens): 60 nM
IC30 (Homo sapiens): 120 nM

COc1cccc2c1C(=O)c1c(O)c3c(c(O)c1C2=O)C[C@@](O)(C(=O)CO)C[C@@H]3O[C@H]1C[C@H](N)[C@H](O)[C@H](C)O1 [Doxorubucin]
IC15 [1]: 22.5 nM
IC30 [2]: 45 nM

COc1cc([C@@H]2c3cc4c(cc3[C@@H](O[C@@H]3O[C@@H]5CO[C@@H](C)O[C@H]5[C@H](O)[C@H]3O)[C@H]3COC(=O)[C@H]23)OCO4)cc(OC)c1O [Etoposide]
IC15 [1]: 283 nM
IC30 [2]: 565 nM
Coefficient estimates of the second-order quadratic fit [3]: −3.739

Nc1ccn([C@@H]2O[C@H](CO)[C@@H](O)C2(F)F)c(=O)n1 [Gemcitabine]
IC15 [1]: 7.79 nM
IC30 [2]: 15.6 nM

O=P1(NCCCl)OCCCN1CCCl (centres unmarked) [Ifosfamide]
IC15 (Homo sapiens): 15000 nM
IC30 (Homo sapiens): 30000 nM
Estimate, quadratic coefficient of the second-order quadratic fit [3]: 0.001006

CN(Cc1cnc2nc(N)nc(N)c2n1)c1ccc(C(=O)N[C@@H](CCC(=O)O)C(=O)O)cc1 [Methotrexate]
IC15 [1]: 300 nM
IC30 [2]: 600 nM

L-asparaginase
IC15 [4]: 0.3 IU/ml
IC30 [4]: 0.6 IU/ml
Coefficient estimates of the second-order quadratic fit [3]: 2.237
Estimate, single-drug coefficient of the second-order quadratic fit [3]: −1.282
